Source: ChEMBL document CHEMBL1201862, “PubChem BioAssay data set” (2004)
Activity calls are given as the source filed them.

Legend:
[1] = biological target: T1, Rac GTPase-activating protein 1 (Homo sapiens, UniProt Q9H0H5); experiment: MgcRacGAP GTPase-activating activity inhibitors, confirmation, biochemical, ADP Hunter fluorescence, primary and confirmatory (AID 624330); assay type: functional
T1 sequence (Q9H0H5 whole entry): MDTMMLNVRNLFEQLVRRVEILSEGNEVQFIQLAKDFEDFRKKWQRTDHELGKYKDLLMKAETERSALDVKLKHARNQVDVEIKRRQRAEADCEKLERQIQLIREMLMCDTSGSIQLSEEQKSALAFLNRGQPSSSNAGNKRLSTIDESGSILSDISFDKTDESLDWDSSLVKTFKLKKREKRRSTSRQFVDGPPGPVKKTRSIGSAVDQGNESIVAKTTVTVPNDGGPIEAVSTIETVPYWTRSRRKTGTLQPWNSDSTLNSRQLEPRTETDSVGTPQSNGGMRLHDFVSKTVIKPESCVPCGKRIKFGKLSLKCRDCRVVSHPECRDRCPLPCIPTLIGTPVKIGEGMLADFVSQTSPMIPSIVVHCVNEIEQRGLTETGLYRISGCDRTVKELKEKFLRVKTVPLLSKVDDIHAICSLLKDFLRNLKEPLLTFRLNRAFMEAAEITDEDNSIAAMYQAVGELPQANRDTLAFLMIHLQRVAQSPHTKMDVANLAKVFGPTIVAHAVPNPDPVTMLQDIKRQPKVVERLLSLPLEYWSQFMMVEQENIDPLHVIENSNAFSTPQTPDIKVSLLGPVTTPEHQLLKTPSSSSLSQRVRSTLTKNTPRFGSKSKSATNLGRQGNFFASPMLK

[2] = biological target: T2, Polyadenylate-binding protein 1 (Homo sapiens, UniProt P11940); experiment: PABP1 MLLE–PAM2 interaction inhibitors, dose response, miRNA deadenylation inhibitor project, biochemical, fluorescence polarization, Cy5-PAM2 peptide, secondary (AID 602260); assay type: functional; conditions: read-out: IC50_Mean
[3] = biological target: T2, Polyadenylate-binding protein 1; experiment: PABP1 MLLE–PAM2 binding inhibitor potency, dose response, biochemical, fluorescence polarization, FITC-PAM2 peptide (AID 602259); assay type: functional; conditions: read-out: IC50_Mean
Cytochrome P450 1A2 = biological target: T3, Cytochrome P450 1A2 (Homo sapiens, UniProt P05177);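 also: PubChem cytochrome P450 panel assay, CYP1A2 panel member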
T3 sequence (P05177 whole entry): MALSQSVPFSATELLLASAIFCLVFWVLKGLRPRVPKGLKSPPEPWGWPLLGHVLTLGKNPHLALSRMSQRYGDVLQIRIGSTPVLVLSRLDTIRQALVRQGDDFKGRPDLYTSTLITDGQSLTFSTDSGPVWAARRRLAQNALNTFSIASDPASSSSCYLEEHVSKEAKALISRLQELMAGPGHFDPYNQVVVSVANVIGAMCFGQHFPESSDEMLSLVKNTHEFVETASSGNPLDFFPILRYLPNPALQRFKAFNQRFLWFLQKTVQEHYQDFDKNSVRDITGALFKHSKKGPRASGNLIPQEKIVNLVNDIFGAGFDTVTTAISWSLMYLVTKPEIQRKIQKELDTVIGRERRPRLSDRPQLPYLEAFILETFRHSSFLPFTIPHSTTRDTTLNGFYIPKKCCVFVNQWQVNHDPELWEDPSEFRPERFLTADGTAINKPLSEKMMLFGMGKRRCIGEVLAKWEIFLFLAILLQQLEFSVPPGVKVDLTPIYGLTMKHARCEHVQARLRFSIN

Cytochrome P450 2C9 = Cytochrome P450 2C9 (Homo sapiens, UniProt P11712)
[4] = HEp-2 cell cytotoxicity, dose response, cytotoxicity control for RSV inhibitor project, HTS (AID 2410); assay type: functional; conditions: human respiratory syncytial virus
[5] = microbe, parasite or virus in culture; assay type: functional; conditions: Mycobacterium tuberculosis
[6] = Luminescence Cell-Based Dose Retest to Confirm Inhibitors of Cancer Stem Cells. [Related pubchem assays (depositor defined):AID2717, AID2721]; assay type: functional; conditions: Homo sapiens
cells [7] = assay type: functional, cell-based
cells [8] = assay type: functional, cell-based; remark: listed apart in the source
[9] = biological target: T4, Heat shock factor protein 1 (Mus musculus, UniProt P38532); experiment: inhibition of MG132-induced HSE-luciferase signal, confirmation, cell-based, NIH3T3, luminescence, dose retest (AID 2382); assay type: functional;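 also: NIH3T3 fibroblasts with HSF1-driven luciferase reporter stressed by proteasome inhibitor MG132; luminescence from HSF1-driven luciferase expression after 8 hours of MG132 stress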
T4 sequence (P38532 whole entry): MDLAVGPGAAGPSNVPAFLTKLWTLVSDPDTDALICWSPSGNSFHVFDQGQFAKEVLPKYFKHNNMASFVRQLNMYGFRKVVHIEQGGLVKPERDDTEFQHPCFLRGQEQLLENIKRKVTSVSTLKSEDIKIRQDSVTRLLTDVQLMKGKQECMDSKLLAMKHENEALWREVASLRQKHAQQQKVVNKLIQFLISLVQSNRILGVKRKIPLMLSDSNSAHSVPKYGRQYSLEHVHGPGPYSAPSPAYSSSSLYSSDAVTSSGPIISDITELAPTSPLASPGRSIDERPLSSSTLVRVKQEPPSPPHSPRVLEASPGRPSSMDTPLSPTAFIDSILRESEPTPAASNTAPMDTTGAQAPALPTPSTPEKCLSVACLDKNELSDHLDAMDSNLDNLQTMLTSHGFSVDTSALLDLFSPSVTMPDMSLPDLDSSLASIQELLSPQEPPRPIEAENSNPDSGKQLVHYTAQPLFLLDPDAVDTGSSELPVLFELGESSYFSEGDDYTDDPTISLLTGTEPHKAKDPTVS

[10] = growth suppression of PTEN-null colon cells, dose response, cell-based, HCT116 PTEN knockout (AID 1047); assay type: functional;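 also: HCT116 colon tumor cells with PTEN knocked out; cells exposed to compound for 60 hours before readout; potency for loss of cell viability measured by luminescence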
[11] = growth suppression of beta-catenin-knockout colon cells, dose response, cell-based, HCT116, human colon tumor (AID 1045); assay type: functional;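 also: HCT116 colon tumor cells with beta catenin knocked out; cells exposed to compound for 60 hours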
Cytochrome P450 2C19 = Cytochrome P450 2C19 (Homo sapiens, UniProt P33261); experiment: Cytochrome panel assay with activity outcomes. Panel member name: p450-cyp2c19 Compounds with AC50 equal or less than 10 uM are considered active; assay type: functional; conditions: read-out: AC50
[12] = cytotoxicity in HEK-293T cells, dose response, cytotoxicity control for BCR NF-kB inhibitor project, luminescence, B-cell screen hits (AID 489021); assay type: functional, cell-based;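 also: HEK-293T cells carrying an NF-kB luciferase reporter; cells exposed to compound for about 14 hours before viability readout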
Protein skinhead-1 = biological target: T5, Protein skinhead-1 (Caenorhabditis elegans, UniProt P34707); assay type: functional
T5 sequence (P34707 whole entry): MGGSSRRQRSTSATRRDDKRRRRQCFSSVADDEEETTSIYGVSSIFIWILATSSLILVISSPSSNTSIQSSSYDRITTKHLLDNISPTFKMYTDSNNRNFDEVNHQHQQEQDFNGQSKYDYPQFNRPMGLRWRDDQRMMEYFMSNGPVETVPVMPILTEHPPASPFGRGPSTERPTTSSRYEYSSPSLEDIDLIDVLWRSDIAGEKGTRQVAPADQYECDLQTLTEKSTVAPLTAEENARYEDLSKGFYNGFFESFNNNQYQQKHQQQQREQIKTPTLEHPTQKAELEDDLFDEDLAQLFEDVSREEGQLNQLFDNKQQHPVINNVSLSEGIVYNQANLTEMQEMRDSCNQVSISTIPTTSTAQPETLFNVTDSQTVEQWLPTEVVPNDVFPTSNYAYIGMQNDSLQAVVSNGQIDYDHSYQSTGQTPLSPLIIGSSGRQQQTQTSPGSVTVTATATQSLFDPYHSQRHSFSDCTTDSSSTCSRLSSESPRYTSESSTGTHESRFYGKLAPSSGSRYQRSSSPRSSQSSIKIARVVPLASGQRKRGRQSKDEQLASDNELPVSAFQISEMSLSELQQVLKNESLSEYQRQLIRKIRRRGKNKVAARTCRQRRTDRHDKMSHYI

[13] = biological target: FAD-linked sulfhydryl oxidase ALR (Homo sapiens, UniProt P55789); experiment: inhibitors of human ALR sulfhydryl oxidase, dose response, biochemical, H2O2 detection, luminescence, cherry-pick (AID 493248)
Paired box protein Pax-8 = Paired box protein Pax-8 (Homo sapiens, UniProt Q06710); experiment: inhibitors of PAX8-driven TPO luciferase reporter, dose response, RMG-I cells, cherry-pick (AID 687027); assay type: functional, cell-based;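 also: luciferase reporter driven by Pax8 target thyroperoxidase promoter measured by SteadyGlo luminescence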
INS1 = experiment: beta cell apoptosis inhibitors, cytokine rescue, dose response, luminescence, retest (AID 449756); assay type: functional, cell-based; conditions: Rattus norvegicus;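 also: cell death triggered by IL-1 beta plus TNF-alpha plus IFN-gamma mixture; protective hits raise ATP signal compared with cytokine alone wells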

T2 sequence (P11940 whole entry): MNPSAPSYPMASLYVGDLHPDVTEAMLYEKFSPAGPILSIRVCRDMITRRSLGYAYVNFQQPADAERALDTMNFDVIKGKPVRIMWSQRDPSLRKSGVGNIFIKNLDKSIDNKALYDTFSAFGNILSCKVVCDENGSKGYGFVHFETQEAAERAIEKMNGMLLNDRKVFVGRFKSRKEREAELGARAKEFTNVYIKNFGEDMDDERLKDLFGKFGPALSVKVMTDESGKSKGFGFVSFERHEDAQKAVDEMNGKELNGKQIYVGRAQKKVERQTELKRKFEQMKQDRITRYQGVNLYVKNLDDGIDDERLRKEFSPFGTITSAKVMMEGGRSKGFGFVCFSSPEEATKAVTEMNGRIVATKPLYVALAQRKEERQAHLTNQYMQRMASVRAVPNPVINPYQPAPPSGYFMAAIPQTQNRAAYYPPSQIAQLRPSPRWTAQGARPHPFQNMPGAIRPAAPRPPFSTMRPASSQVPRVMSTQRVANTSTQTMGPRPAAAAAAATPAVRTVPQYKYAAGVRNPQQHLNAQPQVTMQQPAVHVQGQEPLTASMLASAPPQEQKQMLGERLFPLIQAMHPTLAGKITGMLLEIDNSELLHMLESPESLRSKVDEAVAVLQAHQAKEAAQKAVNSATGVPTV
Chain of Paired box protein Pax-8 (Q06710 whole entry): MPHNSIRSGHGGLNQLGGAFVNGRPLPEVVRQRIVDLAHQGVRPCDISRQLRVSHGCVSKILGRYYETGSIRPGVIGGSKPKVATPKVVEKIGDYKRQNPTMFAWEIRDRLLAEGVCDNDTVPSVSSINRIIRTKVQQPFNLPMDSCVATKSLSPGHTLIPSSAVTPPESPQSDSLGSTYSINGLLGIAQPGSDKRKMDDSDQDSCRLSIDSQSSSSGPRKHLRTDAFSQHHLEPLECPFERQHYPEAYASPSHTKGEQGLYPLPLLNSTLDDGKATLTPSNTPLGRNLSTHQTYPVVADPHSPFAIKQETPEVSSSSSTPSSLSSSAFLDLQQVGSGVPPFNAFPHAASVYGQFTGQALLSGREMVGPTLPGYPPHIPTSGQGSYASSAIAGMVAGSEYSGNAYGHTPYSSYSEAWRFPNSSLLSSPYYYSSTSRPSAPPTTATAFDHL
Chain of Cytochrome P450 2C19 (P33261 whole entry): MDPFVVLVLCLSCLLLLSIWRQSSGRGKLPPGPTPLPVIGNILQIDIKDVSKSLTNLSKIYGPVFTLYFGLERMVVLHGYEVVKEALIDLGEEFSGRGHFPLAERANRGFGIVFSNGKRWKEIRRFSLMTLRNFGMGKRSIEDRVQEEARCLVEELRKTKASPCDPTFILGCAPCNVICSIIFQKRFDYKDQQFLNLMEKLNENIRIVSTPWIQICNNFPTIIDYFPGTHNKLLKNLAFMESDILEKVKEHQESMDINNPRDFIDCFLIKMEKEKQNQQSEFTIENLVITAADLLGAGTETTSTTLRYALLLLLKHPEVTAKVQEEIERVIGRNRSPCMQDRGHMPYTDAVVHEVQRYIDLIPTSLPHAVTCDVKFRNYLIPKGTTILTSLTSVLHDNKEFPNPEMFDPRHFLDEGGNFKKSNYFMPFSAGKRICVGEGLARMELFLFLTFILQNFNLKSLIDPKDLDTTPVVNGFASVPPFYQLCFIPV
Chain of FAD-linked sulfhydryl oxidase ALR (P55789 whole entry): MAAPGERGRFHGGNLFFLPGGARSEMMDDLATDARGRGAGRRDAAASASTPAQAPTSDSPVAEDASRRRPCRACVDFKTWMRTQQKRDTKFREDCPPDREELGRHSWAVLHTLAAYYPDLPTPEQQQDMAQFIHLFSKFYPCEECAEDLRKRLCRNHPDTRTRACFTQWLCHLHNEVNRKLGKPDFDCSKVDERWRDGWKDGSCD
Chain of Cytochrome P450 2C9 (P11712 whole entry): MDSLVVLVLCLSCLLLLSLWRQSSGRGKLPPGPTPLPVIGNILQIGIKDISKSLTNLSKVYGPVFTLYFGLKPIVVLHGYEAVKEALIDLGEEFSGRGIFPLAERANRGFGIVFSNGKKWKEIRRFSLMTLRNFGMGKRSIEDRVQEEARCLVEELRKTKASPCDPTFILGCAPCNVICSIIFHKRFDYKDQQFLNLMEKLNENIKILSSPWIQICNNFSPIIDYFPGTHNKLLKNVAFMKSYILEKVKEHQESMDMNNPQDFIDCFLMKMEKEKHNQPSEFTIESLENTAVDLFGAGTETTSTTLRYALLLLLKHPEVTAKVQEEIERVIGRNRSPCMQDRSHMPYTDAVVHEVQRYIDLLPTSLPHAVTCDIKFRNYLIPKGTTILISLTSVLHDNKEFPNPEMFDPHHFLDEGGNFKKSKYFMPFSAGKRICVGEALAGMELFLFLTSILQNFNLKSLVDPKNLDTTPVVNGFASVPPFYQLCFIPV

Nc1ccc(Nc2nc(-c3ccncc3)cs2)cc1
IC50 [1]: 9.36 µM (active)

FC(F)(F)c1cccc(NC(S)=NN=C(S)NCc2ccccc2)c1
IC50 [2]: > 66 µM (inactive) | IC50 [3]: > 66 µM (inactive)

CC1CCN(C(=S)c2ccc(O)cc2)CC1
IC50 [2]: > 66 µM (inactive) | IC50 [3]: > 66 µM (inactive) | AC50 (Cytochrome P450 1A2): 14.1 µM (inconclusive) | AC50 (Cytochrome P450 2C9): 39.8 µM (inconclusive)

CC(C)c1ccccc1NC(=O)c1cccc(NC(=O)c2ccccc2)c1
CC50 [4]: 20.3 µM (active)

Cc1onc(-c2ccccc2Cl)c1C(=O)Nc1sc2c(c1C(N)=O)CCC(C)C2 (centres undefined)
CC50 [4]: 19.3 µM (active)

Cc1oc(C)c2c(=O)ccc3c(c12)OC(N)=C(C#N)C3c1ccccc1Cl (centres undefined)
CC50 [5]: > 40 µM (active)

COc1ccc(N2CCC(CN=C(S)Nc3cccc(C)c3)C2)cc1 (centres undefined)
IC50 [1]: 39.3 µM (active)

COc1ccc(Br)cc1C(=O)NC(=S)Nc1cc(-c2nc3ccccc3[nH]2)ccc1C
AC50 [6]: > 195 µM (inactive) | IC50 [2]: > 66 µM (inactive) | IC50 [3]: > 66 µM (inactive)

CCCCNC(=O)CN1C(=O)COc2ccc(S(=O)(=O)N3CCCCCC3)cc21
EC50 (cells [7]): > 350 µM (not active) | EC50 (cells [8]): > 350 µM (not active)

CC(=O)C[C@H]1c2cc(F)ccc2S(=O)(=O)N1c1ccc(N(C)C)cc1
EC50 [9]: 33.8 µM (active) | IC50 [1]: 119 µM (active)

CN(C)c1ccc(N=Nc2ccc(S(N)(=O)=O)cc2)cc1
EC50 (cells [7]): > 350 µM (not active) | EC50 (cells [8]): 3.13 µM (active)

CCOC(=O)C1SC2(C(F)(F)F)CC1(O)c1c(C)cc(C)nc1O2 (centres undefined)
IC50 [2]: > 66 µM (inactive) | IC50 [3]: > 66 µM (inactive)

CCc1cccc2c(C(=O)CCl)c[nH]c12
CC50 [5]: 24.4 µM (active)

CCC(C)c1ccc2oc(-c3ccc(NC(=O)Cn4cnc5c(=O)n(C)c(=O)n(C)c54)cc3)nc2c1 (centres undefined)
EC50 (cells [7]): > 350 µM (not active) | EC50 (cells [8]): 43.7 µM (active) | EC50 [10]: 9.27 µM (active) | EC50 [11]: 8.52 µM (active)

COc1ccc(CN2CCCN(C)CC2)c(OC)c1C
IC50 [1]: 124 µM (active)

C=CCN1C(=O)/C(=C\c2ccc(Cl)cc2)N=C1SCC(=O)NC1CCCCC1
IC50 [2]: > 66 µM (inactive) | IC50 [3]: > 66 µM (inactive)

CN1C(=S)SC(N(O)C(=O)Nc2ccc(Cl)c(Cl)c2)C1(C)C (centres undefined)
CC50 [5]: 38.9 µM (active)

Cc1ccccc1SCC(=O)OCC(=O)Nc1ccc(N(C)C)cc1
IC50 [1]: 66.7 µM (active)

O=C(O)CCC(C(=O)O)N1C(=O)/C(=C2/C(=O)Nc3ccccc32)SC1=S (centres undefined)
IC50 [2]: > 66 µM (inactive) | IC50 [3]: > 66 µM (inactive)

O=C(CN1C(=O)c2ccccc2S1(=O)=O)c1ccc(O)c(O)c1
IC50 [1]: 175 µM (active)

CS(=O)(=O)n1nc(-c2ccccc2)nc1NCc1ccco1
EC50 (cells [7]): > 350 µM (not active) | EC50 (cells [8]): > 350 µM (not active)

COCCNCCOCCOc1ccc(Cl)c(C)c1
IC50 [1]: 138 µM (active)

CC[C@H](C)[C@@H]1O[C@@]2(C=CC1C)CC1C[C@@H](CC=C(C)C(O[C@H]3CC(OC)C(O[C@H]4CC(OC)C(O)C(C)O4)C(C)O3)C(C)C=CC=C3CO[C@@H]4C(O)C(C)=C[C@@H](C(=O)O1)[C@]34O)O2 (some centres undefined)
CC50 [5]: 15.9 µM (active)

O=C(Nc1ccc2c(c1)Cc1ccccc1-2)c1cccnc1
CC50 [4]: 20.3 µM (active)

COc1cccc(NC(=O)CSC(N)=O)c1
IC50 [2]: > 66 µM (inactive) | IC50 [3]: > 66 µM (inactive)

COc1ccc(CNc2ccc(S(N)(=O)=O)cc2)cc1
IC50 [2]: > 66 µM (inactive) | IC50 [3]: > 66 µM (inactive)

CCOc1ccc(N(C(=O)/C=C/C(=O)Nc2cc(C)on2)C(C(=O)NC2CCCC2)c2ccccc2C)cc1 (centres undefined)
CC50 [5]: 20.2 µM (active) | AC50 (Cytochrome P450 2C19): 31.6 µM (inconclusive)

COc1ccc(OC)c(S(=O)(=O)Nc2ccc(-c3ccc4nnc(C)n4n3)cc2)c1
IC50 [12]: > 80 µM (inactive)

CC/C(=C\c1ccc(N(C)C)cc1)c1ccncc1
IC50 (Protein skinhead-1): > 100 µM (inactive) | IC50 [1]: 30.2 µM (active)

O=C(CN1CCN(c2ccc(O)cc2)CC1)N(C1CC1)C1CCS(=O)(=O)C1 (centres undefined)
AC50 [13]: 0.238 µM (active) | IC50 [1]: 80.2 µM (active)

COC(=O)C1CCN(C(=O)COC(=O)/C=C/c2ccc(O)c(OC)c2)CC1
IC50 [1]: 49.7 µM (active)

C[C@H](CO)N1C[C@H](C)[C@@H](CN(C)C(=O)NC2CCCCC2)Oc2cc(C#Cc3ccc(F)cc3)ccc2S1(=O)=O
AC50 (Paired box protein Pax-8): 9.52 µM (active)

C[C@@H]1CN([C@@H](C)CO)C(=O)c2cc(NC(=O)Nc3ccc(C(F)(F)F)cc3)ccc2O[C@@H](C)CCCCO[C@@H]1CN(C)CC1CCCCC1
AC50 (Paired box protein Pax-8): 3.9 µM (active)

CC(C)c1ccc(/C=N/N2CCN(c3ccccn3)CC2)cc1
CC50 [4]: 35.7 µM (active)

CCOC(=O)C(/C=N/c1ccc(NC2=NCC(C)S2)cc1)=C(/O)OCC (centres undefined)
EC50 (cells [7]): > 350 µM (not active) | EC50 (cells [8]): > 350 µM (not active)

CCN(CC)S(=O)(=O)c1ccc(N/N=C/c2cc(OC)ccc2O)nc1
EC50 (cells [7]): 302 µM (active) | EC50 (cells [8]): 25.7 µM (active) | AC50 [6]: 4.47 µM (active) | AC50 (INS1): 1.69 µM (active)

COC(=O)c1cc(=O)n(Cc2ccc3c(c2)OCO3)/c(=N/c2ccc(F)cc2)s1
CC50 [4]: 33.2 µM (active) | EC50 [10]: 27.9 µM (active) | EC50 [11]: 26.2 µM (active)
